This test deals with mushroom-derived tyrosinase. In words: In vitro (cell-free) tyrosinase activity assay with L-tyrosine as substrate. The test is classed as biochemical. The following applies: 200 μM. The protocol: The in vitro tyrosinase analyses were performed using a slight modification of the reported method (Ishihara Y et al., The journal of antibiotics (Tokyo) 1991; 44:25-32; An S M, Koh J S, Boo Y C, Phytotherapy Research 2010; 24:1175-1180). In brief, 250 μl of a 0.1M potassium phosphate buffer (pH 6.8) was put into a 24-well plate, and 25 μl of a mushroom-derived tyrosinase (2,000 units/mL), 25 μl of a sample, and 225 μl of distilled water were put into each well. The plate was incubated at 25° C. for 10 minutes, and 25 μl of 1 mM L-tyrosine used as a substrate was added to the wells. Then, the plate was incubated at 25° C. for 10 minutes, and the optical density of each well measured at 475 nm using a microplate reader (Sunrise-Basic Tecan, Austria). Each of the measured values was represented by a variation (%) with respect to the control. L-tyrosine was used as the substrate, and arbutin was used as the positive control. The results were represented by the relative tyrosinase activities to the non-treated control. Next, effects of L-AHG on the tyrosinase activities were examined using a cell-free assay system. Many reports disclosed that the mushroom-derived tyrosinase was primarily used as a model since it was able to be used in the form of a tablet. […] The results were represented by the relative tyrosinase activities to the non-treated control. […]

The structures appear in SMILES notation.

Take `OC[C@H]1O[C@@H](Oc2ccc(O)cc2)[C@H](O)[C@@H](O)[C@@H]1O` [arbutin]: the “tyrosinase activities relative to the non-treated control” value is recorded as 40%.

For the origin of these results see US20170360671A1, “METHOD FOR PREPARING 3,6-ANHYDRO-L-GALACTOSE, AND USE THEREOF” (Korea University Research and Business Foundation, priority 2012, published 2017).
